Each block holds one compound with its values, some of them ahead of it.
Legend:
[1] = biological target: T1, GTP-loaded KRAS4b (amino acids 1-169) G12C/C118S protein (Homo sapiens, UniProt P01116, C118S/G12C); experiment: Covalent cysteine 12 modification by MALDI-TOF MS, GTP-loaded KRAS G12C; type: binding; details: 15 minutes reaction time point
T1 construct: KRAS4b (amino acids 1-169) G12C/C118S protein; made in house
In short: (§1)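 Covalent adduct formation measured by linear-mode MALDI-TOF MS as modified peak height over summed peak heights, 15 min time point reported. Reactions: KRAS4b 1-169 G12C/C118S (1 μM, loaded with GppNHp, GTP or GDP) plus compound at 1:2.5 ratio, pH 7.3 HEPES/NaCl/MgCl2, room temperature.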

[2] = biological target: T2, Avi-KRAS G12C (1-169) GppNHp/RAF1 RBD-3×FLAG (52-151) (Homo sapiens, UniProt P01116, G12C); experiment: Raf1 RBD-KRAS G12C-GppNHp disruption assay (protein:protein interaction HTRF); type: biochemical
T2 construct: Avi-KRAS G12C (1-169) GppNHp; Avi (N)
In short: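 HTRF measuring RAF1 RBD binding to GppNHp-loaded KRAS G12C (50 nM) in Tris pH 7.5, 100 mM NaCl, 5 mM MgCl2, 10% DMSO. Compound, KRAS, RBD and detection reagents each added sequentially with 1 h room-temperature incubations; 10-point titration; excitation 320 nm, emission 615 nm; activity as % of DMSO; IC50 derived.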

[3] = biological target: T3, GDP-loaded KRAS4b (amino acids 1-169) G12C/C118S protein (Homo sapiens, UniProt P01116, C118S/G12C); experiment: Covalent cysteine 12 modification by MALDI-TOF MS, GDP-loaded KRAS G12C; type: binding; details: 15 minutes reaction time point
T3 construct: KRAS4b (amino acids 1-169) G12C/C118S protein; made in house
In short: as §1

Compound: C=CC(=O)N1C[C@H](N(C)c2nc(OC[C@@]34CCCN3C[C@H](F)C4)nc3cc(-c4ccc(F)c5sc(N)c(C#N)c45)c(F)cc23)C[C@@H]1C [Compound 109]
GTP-KRAS G12C percent of modification [1]: C (10%≤percent of modification <50%)
IC50 [2]: < 0.5 µM
GDP-KRAS G12C percent of modification [3]: A (percent of modification ≥70%)

Compound: C=CC(=O)N1CC[C@@H](N(C)c2nc(OC[C@@]34CCCN3C[C@H](F)C4)nc3cc(-c4ccc(F)c5sc(N)c(C#N)c45)c(C#N)cc23)[C@@H]1CC [Compound 24]
GTP-KRAS G12C percent of modification [1]: D (percent of modification <10%)
IC50 [2]: < 0.5 µM
GDP-KRAS G12C percent of modification [3]: A (percent of modification ≥70%)

Compound: C=CC(=O)N1CC[C@@H](N(CC)c2nc(OC[C@]34CCCN3C[C@H](F)C4)nc3cc(-c4ccc(F)c5sc(N)c(C#N)c45)c(F)cc23)[C@H]1C [Compound 167]
GTP-KRAS G12C percent of modification [1]: A (percent of modification ≥70%)
IC50 [2]: < 0.5 µM
GDP-KRAS G12C percent of modification [3]: A (percent of modification ≥70%)

Second part, the compound after the results:

GTP-KRAS G12C percent of modification [1]: A (percent of modification ≥70%)
IC50 [2]: < 0.5 µM
GDP-KRAS G12C percent of modification [3]: A (percent of modification ≥70%)
Compound: C=CC(=O)N1CC[C@@H](N(CC)c2nc(OC[C@@]34CCCN3C[C@H](F)C4)nc3c(F)c(-c4ccc(F)c5sc(N)c(C#N)c45)ccc23)[C@H]1C [Compound 17, 4-(4-(((2R,3R)-1-acryloyl-2-methylpyrrolidin-3-yl)(ethyl)amino)-8-fluoro-2-(((2R,7aS)-2-fluorotetrahydro-1H-pyrrolizin-7a(5H)-yl)methoxy)quinazolin-7-yl)-2-amino-7-fluorobenzo[b]thiophene-3-carbonitrile]

GTP-KRAS G12C percent of modification [1]: D (percent of modification <10%)
IC50 [2]: 5 to 20 µM
GDP-KRAS G12C percent of modification [3]: D (percent of modification <10%)
Compound: C=CC(=O)N1CC[C@@H](N(C)c2nc(OC[C@@H]3CCCN3C)nc3c(F)c(-c4ccc(F)c5sc(N)c(C#N)c45)c(C(F)(F)F)cc23)[C@H]1C (atropisomer, axis not shown) [Compound 132]

GTP-KRAS G12C percent of modification [1]: C (10%≤percent of modification <50%)
IC50 [2]: < 0.5 µM
GDP-KRAS G12C percent of modification [3]: B (50≤percent of modification <70%)
Compound: C=CC(=O)N1CCC(N(C)c2nc(OC[C@@H]3CCCN3C)nc3c(F)c(-c4nc(N)cc(C)c4C(F)(F)F)c(Cl)cc23)[C@H]1C (stereo partly drawn) [Compound 9]

GTP-KRAS G12C percent of modification [1]: C (10%≤percent of modification <50%)
IC50 [2]: < 0.5 µM
GDP-KRAS G12C percent of modification [3]: C (10%≤percent of modification <50%)
Compound: C=CC(=O)N1CCC(N(CC)c2nc(OC[C@@]34CCCN3C[C@H](F)C4)nc3c(F)c(-c4ccc(F)c5sc(N)c(C#N)c45)c(C(F)(F)F)cc23)[C@H]1CC (stereo partly drawn) [Compound 8]

From patent US20260232666A1, “COMPOSITIONS AND METHODS FOR INHIBITION OF RAS” (TheRas, Inc., priority 2023, published 2026)
